Measured values as given in a melting point compilation (Tetko et al.; mined from patent text by program, amines drawn as free bases though some values may be those of a salt).

Row | melting point [°C] | SMILES
1 | 149 to 150 | Cc1cc(C#CCc2ccc3c(c2)C(C)(C)CCC3(C)C)ccc1C(=O)O
2 | 165 to 167 | CCCc1nc(Cl)c(C=O)n1Cc1ccc(-c2ccccc2-c2nnn[nH]2)cc1
3 | 352 to 354 | Cn1nc(SCSc2nn(C)c3ccc(Cl)cc3c2=O)c(=O)c2cc(Cl)ccc21
4 | 77 to 79 | C=CCc1ccc(OCC(O)CO)c(OC)c1 (centres undefined)
5 | 181 | O=C(CC1CCN(CCn2c(=O)[nH]c3ccccc32)CC1)c1ccc(F)cc1
6 | 190 to 191 | CC(C)(C)OC(=O)N1CCN(c2ccc(S(=O)(=O)c3ccccc3)c([N+](=O)[O-])c2)CC1
7 | 104 to 106 | CC(C)=NOc1ccc([N+](=O)[O-])cc1
8 | 223 to 225 | Cc1c(C#N)sc2nc(-c3ccccc3)nc(N3CCN(C)CC3)c12
9 | 100 to 101 | CCCc1ccc(OCc2ccc(OCc3nc(-c4ccccc4)oc3C)cc2)cc1OCC(=O)OC
10 | 124 to 125 | O=C(N[C@@H](CC1CCCCC1)C(=O)N[C@@H](Cc1ccccc1)C(=O)CSCc1ccco1)OCc1ccccc1
11 | 108 to 111 | Cc1nc2cc(NCC(=O)C(C)(C)C)ccc2s1
12 | 173 | CCOc1cc(C)cc2cc(C#N)c(=O)oc12
13 | 83 to 85 | OCc1ccc2c(n1)C(CNCCCCCCOCCC#Cc1ccc(F)cc1)OC(c1ccccc1)O2 (centres undefined)
14 | 280 to 285 | Cc1c(C)c(Cl)c2[nH]c(Cl)nc2c1Cl
15 | 232 to 234 | CCn1cc(C(=O)O)c(=O)cc1-c1ccc(OC)c(OC)c1
16 | 116 to 117 | CSC(N)=Nc1nncs1
17 | 110 to 113 | CCC(O)c1cc([N+](=O)[O-])cc(Br)c1Cl (centres undefined)
18 | 59 to 60 | CCO[C@@H](Cc1ccc2c(ccn2Cc2nc(-c3ccccc3OC)oc2C)c1)C(=O)O
19 | 90.5 to 91.5 | COc1ccc2c(CCC3CCN(Cc4ccccc4)CC3)noc2c1
20 | 66 | CCCCCCOc1ccc(-c2ccc(-c3ccc(CCCC)s3)c(F)c2)cc1
21 | 83 to 85 | COC(=O)c1cccc2nc(SCCCN3CCCN(CC(=O)Nc4c(C(C)C)cccc4C(C)C)CC3)oc12
22 | 184 to 186 | CN(Cc1cccc2c1C(=O)N(C1CCC(=O)NC1=O)C2=O)C(=O)c1ccco1 (centres undefined)
23 | 140 to 142 | CCOC(=O)c1c(Nc2ccc(F)cc2[N+](=O)[O-])sc2c1CCCC2
24 | 205 to 207 | CCCCCc1cc2c(nc(O)n2CC2CCN(C(=O)C3CC3)CC2)c(N)n1
25 | 150 to 151 | COc1nc(C)cnc1NS(=O)(=O)c1cccnc1-c1ccc(C(C)(C)C)cc1

Row | melting point [°C] | SMILES
26 | 80 to 81 | Cc1oc(-c2ccccc2)nc1COc1ccc(CCCBr)cc1
27 | 114 | CCOc1cc(C=[N+]([O-])C2CCCCC2)ccc1OC
28 | 106 to 108 | COC(=O)C1=C(C)NC(C)=C(C(=O)OCCN2CCN(Cc3ccccc3)CC2)C1c1cccc([N+](=O)[O-])c1 (centres undefined)
29 | 200 | CN(c1ccnc(C(N)=O)c1)c1ccccc1C(=O)Nc1cc2ccccc2cn1
30 | 128 to 130 | Fc1cc(CC2(Cc3ccnc(F)c3)c3ccccc3-c3cccnc32)ccn1
31 | 138 to 139 | CCOC(=O)c1nc(/C=C/c2ccc([N+](=O)[O-])o2)no1
32 | 29 to 30 | COC(=O)c1ccc(F)c(Br)c1
33 | 127 to 130 | O=C(O)COc1c(-c2cccc(C(F)(F)F)c2)cc(C(=O)NCCCCCCOCc2ccc(OCc3ccccc3)cc2)cc1-c1cccc(C(F)(F)F)c1
34 | 130 to 132 | O=C(COCc1ccccc1Cl)Nc1ccccc1
35 | 197 to 198 | CC(=O)c1ccc2c(c1)OCC(=O)N2
36 | 126 to 127 | CCOC(=O)C1=C2COC=CN2C(C)=C(C(=O)OC)C1c1ccccc1Cl (centres undefined)
37 | 76 | CCCc1cc(C(O)(CC)CC)ccc1-c1cc(CCc2ccc(CO)c(CO)c2)ccc1C
38 | 150 to 153 | NC(=O)N(c1ccc(F)cc1)c1ccc(F)cc1
39 | 227 to 230 | CCN1CCN(c2ccc(Nc3cc(-c4cnc5cc[nH]c5c4)cn4ccnc34)nc2)CC1
40 | 188 to 190 | CSC(=C[N+](=O)[O-])Nc1ccc(C#N)cc1
41 | 122 to 124 | OCc1cc2cc(-c3ccsc3)ccc2o1
42 | 121 to 122 | COc1ccc(C2(c3ccc(OC)cc3)C(Cl)(Cl)C23CCCCC3)cc1
43 | 92 to 94 | CS(=O)(=O)Nc1ccccc1OCCCN1CCC(OC(c2ccsc2)c2ccsc2)CC1
44 | 174 to 176 | COc1ccc(-c2ccc(C(=O)Nc3cc4ncc(CN5CCCC5)cc4cc3F)c(F)c2)cc1
45 | 232 to 234 | Cc1cc(O)nn1C(=O)Nc1ccccc1
46 | 178 to 180 | CC(C)(CO)CCCCC(CCCCC(C)(C)CO)(C(=O)O)C(=O)O
47 | 117 to 118 | Cc1noc(C)c1Cn1cc(N2C(=O)CN(CCOc3ccccc3)C2=O)cn1
48 | 225 to 230 | O=C(NC12CC3CC(CC(C3)C1)C2)c1cc(O)c(O)cc1Cl
49 | 86 | CCC=NNC=C(C(=O)OCC)C(=O)c1cc(F)c(F)c(F)c1F
50 | 225 | Cc1nc2cccc(S(=O)(=O)n3c(CCCC(=O)O)cc4nc(Cl)ccc43)c2s1

Row | melting point [°C] | SMILES
51 | 43 to 44 | COc1ccc2c(N(C)CCN3CCOCC3)noc2c1
52 | 172 to 174 | COc1cc(C#Cc2ccccc2)c(OC)cc1C#Cc1ccccc1
53 | 163 to 166 | Nc1cccc(OC2CCCCO2)c1O (centres undefined)
54 | 227 to 230 | CCCNC(=O)c1ccc(CCN2CC=C(c3c[nH]c(-c4ccc(F)cc4)c3-c3ccncc3)CC2)cc1
55 | 148 to 149 | Cc1ccc(S(=O)(=O)Oc2ccc(S(=O)(=O)c3c(-c4ccccc4)noc3C(C)C)cc2)cc1
56 | 259 to 261 | CC(=O)Oc1c(C)c(C)c2c(c1C)CC(C)(C(=O)Nc1cnc3c(C)cc(C)cc3c1-c1ccccc1Cl)O2 (centres undefined)
57 | 104 | c1ccn2c(SCCN3CCNCC3)nnc2c1
58 | 82 | CN1CCC(OC(c2cccc(C#CCCCN)c2)c2nc3ccccc3[nH]2)CC1 (centres undefined)
59 | 77 to 78 | Cc1ccc2c(c1)N=Cc1cccc3c1N2CC3
60 | 154 to 156 | Cc1ccc(-c2cn(C)cc(-c3cccc(C(F)(F)F)c3)c2=O)cc1
61 | 289 to 292 | CCCCCNC(=O)n1cc(F)c(N)nc1=O
62 | > 300 | NC(=O)c1cc(O)c(O)cc1N
63 | 114 to 115 | OCC1OC(n2cnc3c(-n4cccc4)ncnc32)C(O)C1O (centres undefined)
64 | 93 to 95 | CCOC(=O)Cc1cc(Br)c(OC(=S)N(C)C)c(Br)c1
65 | 65 to 66 | Fc1ccc(C2CN(C(c3ccccc3)c3ccccc3)C2)cc1
66 | 145 | CN=CN(C)c1nc(-c2cc(Cl)nc(Cl)c2)cs1
67 | 85 to 87 | C=CCc1c(O)c(Br)cc2c1[C@H](CCNC(=O)CC)CC2
68 | 191 to 193 | C(#Cc1cccs1)C1=CCN(Cc2c[nH]c3ncccc23)CC1
69 | 191 to 194 | O=C(O)c1ccc(S(=O)(=O)n2cccc2)s1
70 | 56 to 57 | CC(=Cc1ncon1)c1ccc(Cl)cc1
71 | 159 to 163 | O=C(O)C(Cc1ccccc1)Cn1ccnc1 (racemic)
72 | 126 to 128 | CC(=O)Oc1c(C)c(CCC2CC(O)CC(=O)O2)c2c(c1C)CC(C)(C)O2 (centres undefined)
73 | 158 to 160 | COc1ccc(N)c(-c2ccc3cc(OC)c(OC)cc3c2)c1
74 | 233 to 235 | NC1=NCc2c[nH]c3cccc1c23
75 | 182 to 184 | COc1ccc(CNc2cc3c(Nc4ccc(OCc5ccccn5)c(Cl)c4)ncnc3cn2)cc1

Row | melting point [°C] | SMILES
76 | 164 | CC(C)(C)c1cc2c(c(C(C)(C)C)c1)O[PH](=O)Oc1c(cc(C(C)(C)C)cc1C(C)(C)C)C2
77 | 76 to 77 | CCCCCCCCCCCCCC(=O)OCC1OC(n2cc(F)c(=O)n(C(=O)c3ccc(C)cc3)c2=O)CC1OC(=O)CCCCCCCCCCCCC (centres undefined)
78 | 126 | CNC(=O)c1ccc(C(=O)OC)cc1
79 | 80 | Cc1ccc(NC#N)c(-c2ccccc2)c1
80 | 182 | COc1cc2c(cc1OC)CN(CCCSc1ccc(NC(=O)c3cccc4c(=O)c5ccccc5[nH]c34)cc1)CC2
81 | > 250 | COC(=O)c1cccc2[nH]c(Sc3cccc4c(=O)cc[nH]c34)nc12
82 | 110 | C=C(C)C(=O)OCCOc1ccc(N=Nc2ccc(C#N)cc2)cc1C#N
83 | 151 to 152 | O=C(N[C@H](Cc1cccc(OC(F)(F)C(F)F)c1)[C@@H](O)c1cccc(F)n1)c1cccc2c1C=CCCC2 (racemic)
84 | > 300 | CC(C)[C@H](NC1CCCCC1)C(=O)O
85 | 113 to 116 | CSc1ccc2oc3cc(F)ccc3c(=O)c2c1
86 | 94 | O=C(CCCl)Nc1ccc(F)c(Cl)c1
87 | 130 | CN1C(=O)CCc2cc(S(=O)(=O)Cl)ccc21
88 | 140 to 141 | COc1ccc(C2(C=O)C=CC=CC2)cc1OCCCN1CCC(c2noc3cc(F)ccc23)CC1 (centres undefined)
89 | 232 to 233 | Cc1c(NC(=O)c2ccc(C#CC3(O)CCC3)cc2)ccc2cc(CNCC(C)(C)C)n(C)c12
90 | 180 | O=C(OC1C2CN(Cc3ccccc3)CC1CN(C(=O)c1ccc([N+](=O)[O-])cc1)C2)c1ccccc1 (centres undefined)
91 | 214 to 217 | O=[N+]([O-])c1cn2c(n1)OC(COc1ccc(N3CCN(CC4CCN(Cc5ccc(C(F)(F)F)cc5)CC4)CC3)cc1)CC2 (centres undefined)
92 | 140 | CC(C)(C)OC(=O)C=Cc1ccc(NC(=O)C=C2CC(C(=O)O)Nc3ccccc32)cc1 (racemic)
93 | 120 | O=C(Nc1ccc(Cl)cc1)Oc1ccc2c(c1)N(Cc1ccccc1)CCC2
94 | 157 to 159 | Cc1c(-c2ccc(=O)n(C)c2)cccc1[N+](=O)[O-]
95 | 135 to 136 | COCCNC(=O)c1cccc(-c2cccc3c(C)c(Cc4cccc(C(F)(F)F)c4)sc23)c1
96 | 93 to 95 | Cc1cc(C(=O)NC/C=C\COc2ncccc2CN2CCCCC2)n[nH]1
97 | 220 | CON=CC(C)(C)NC(=O)c1c(I)cccc1C(=O)Nc1ccc(OC(C(F)(F)F)C(F)(F)F)nc1C
98 | 210 | CNC(=O)c1c(N)n(C2CCCC2)c2nc(C#CC(C)(O)CO)ccc2c1=O (centres undefined)

Row | SMILES | melting point [°C]
99 | CNc1ccc(Cl)cc1 | 72 to 74
